Literature values in PMC6422283 (Future medicinal chemistry, 2015).

System: TRPV1
Conditions: capsaicin-induced Ca2+ flux into HEK293 cells

Structure (SMILES) | IC50 [nM]
Oc1cc2c(cc1O)CN(C(=S)NCCc1ccc(Cl)cc1)CCC2 [Compound 2, capsazepine] | 100
Cc1nc2cc(NC(=O)c3ccc(-c4ccc(F)cc4)nc3C)ccc2s1 [SB782443] | 49
